Like-named read-outs stand apart in the source and are kept apart here.
What was measured:
[1] = system: A549 cells; assay: Cytotoxicity assay (resazurin); assay type: cell-based; details: 20 h, mean±S.E.M. from two independent experiments
Description: Sample preparation. The compounds were dissolved in DMSO at 12.8 mg/mL as the stock solutions, except for compounds 9-17, which were directly dissolved in the culture medium at 12.8 mg/mL. The stock solutions were diluted by the culture medium to the testing concentration at 128 μg/mL (compound 9-17 were diluted to 1,280 μg/mL). The solutions were then serially diluted two fold in a 96-well plate and were used in the cytotoxicity assay immediately.
Cell culture and cytotoxicity assay. A549 cells (ATCC CCL-185) were cultured in high glucose DMEM (Sigma-Aldrich, D6429) supplemented with 10% FBS, 1% penicillin-streptomycin solution (Sigma-Aldrich, P4333), 1% gentamicin solution (Sigma-Aldrich, G1272) and 1% amphotericin B solution (Sigma-Aldrich, A2942) at 37° C. in a humidified atmosphere containing 5% CO2. After cells reached 80%˜90% confluency, they were detached and counted using an Invitrogen Countess automated cell counter. Cells with viability over 90% were seeded at a density of 5×10^3 cells per well in 96-well cell culture plates. After overnight culture, the culture medium in each well removed with a pipet. 80 μL of the compound solutions from each well of the 96-well plate prepared above were transferred to this 96-well plate containing the cells, and the plates were incubated for 20 h. After addition of 8 μL of 110 μg/mL resazurin, the plates were incubated for further 3 h at 37° C. in 5% CO2. The fluorescence intensity was measured using a Tecan M200 Infinite Pro microplate reader at excitation 560 nm, emission 590 nm. IC50 were calculated by curve fitting the inhibition values vs. log(concentration) using GraphPad's Prism. The cytotoxicity assays (in triplicate) were repeated twice using freshly prepared cells and compound solutions.

[2] = system: K. pneumoniae ATCC 700603; assay: Antibacterial assay, MIC/MBC by broth microdilution (CLSI); assay type: cell-based; details: for MBC (in brackets) / MIC: K. pneumoniae ATCC 700603; for MIC: repeated twice, a/b = both values
Description: (§1) Antibacterial assay. The minimum inhibitory concentrations (MICs) and the minimum bactericidal concentrations (MBCs) were determined by the broth microdilution method as described in the CLSI (The Clinical & Laboratory Standards Institute) guidelines (Performance standards for antimicrobial susceptibility testing: Clinical and Laboratory Standards Institute (CLSI), Twenty-Fifth informational supplement. Document M100-S25: […]; Vol. 35). All bacterial strains were cultured in cation-adjusted Muller Hinton broth (CAMHB) up to log-phase and then diluted to give a concentration of 7.5×10^5 CFU/mL. The gold complexes were dissolved in DMSO or water as stock solutions, which were then serially diluted two-fold in a 96-well plate. Aliquots (100 μL) of the dilutions were mixed with equal volumes of the bacterium suspension in a 96 well plate (in triplicates). The plates were incubated at 37° C. for 18 h without shaking. Negative and positive controls were included in the same well plate with wells having the culture medium only and bacteria solution only, respectively. The sample concentration that gave inhibition values above 90% were determined as MICs as calculated from absorbance values at 600 nm (OD600) obtained using a Tecan SPARK IOM plate reader. To determine minimum bactericidal concentrations (MBCs), agar plates were treated with 5 μL sample solutions from each well, and then incubated at 37° C. for 18 h without shaking. The sample concentration that gave no colony formed on agar plates were determined as MBCs.
(§2) Selection of bacteria. The ESKAPE pathogens were chosen as they are responsible for the majority of nosocomial infections and also as they provide a good scope of strains including both Gram-negative and Gram-positive species. A. baumannii NCTC 13420 was originally identified in 24 hospitals in the UK during 2000-2003, which produced OXA-51-like β-lactamases, and was highly resistant to ampicillin, piperacillin, piperacillin/tazobactam, ceftazidime, cefotaxime, gentamicin and ciprofloxacin. P. aeruginosa NCTC13437 produces VIM-10 metallo-carbapenemase and VEB-1 (Vietnamese extended-spectrum beta-lactamase). Wild-type strain E. cloacae NCTC 13405 (originally named E. cloacae 684) was isolated from patients at the London Hospital during 1982-1983. This strain has inducible AmpC β-lactamase and is resistant to ampicillin/amoxicillin and cefoxitin. K. pneumoniae ATCC 700603 was isolated from the urine of a hospitalized patient in Richmond, Va. in 1994, and it produces SHV-18 extended spectrum beta-lactamase (ESBL). JE2 (USA300) is a methicillin-resistant S. aureus (MRSA) strain, also resistant to beta-lactams, ciprofloxacin, tetracycline, macrolides (erythromycin), lincosamides (clindamycin), streptogramin B, and mupirocin. E. faecium ATCC 700221, a positive fecal VRE (vancomycin-resistant enterococcus) isolate, is resistant to several antibiotics including vancomycin and teicoplanin. The quality control strain, Gram-negative E. coli ATCC 25922, was included in all assays and validated with ciprofloxacin and […].

[3] = system: E. cloacae NCTC 13405; assay: as above; assay type: cell-based; details: E. cloacae NCTC 13405; for MIC: repeated twice, a/b = both values
Description: as §1, §2

[4] = system: A. baumannii NCTC 13420; assay: as above; assay type: cell-based; details: A. baumannii NCTC 13420; for MIC: repeated twice, a/b = both values
Description: as §1, §2

[5] = system: S. aureus JE2 (USA300); assay: as above; assay type: cell-based; details: S. aureus JE2 (USA300); for MIC: repeated twice, a/b = both values
Description: as §1, §2

[6] = system: P. aeruginosa NCTC 13437; assay: as above; assay type: cell-based; details: P. aeruginosa NCTC 13437; for MIC: repeated twice, a/b = both values
Description: as §1, §2

[7] = system: E. faecalis ATCC 700221; assay: as above; assay type: cell-based; details: for MIC: repeated twice, a/b = both values
Description: as §1, §2

[8] = system: E. coli ATCC 25922; assay: as above; assay type: cell-based; details: for MIC: repeated twice, a/b = both values
Description: as §1, §2

[9] = Log P determination (n-octanol/water, FAAS)
Description: Log P Determination: Calibration curves. Milli-Q Water (150 mL) was added to n-octanol (150 mL), and the mixture was stirred for 3 days to allow both phases to reach saturation. The gold standard solution (1000 ppm Au in hydrochloric acid, Fisher Scientific) was diluted to 1, 2, 3, 4 and 5 ppm with n-octanol-saturated water, and the absorbance of the resulting solutions was measured by flame atomic absorption spectroscopy (FAAS, Agilent Technology 200 Series AA, equipped with a gold HC Lamp-Au coded). The absorbance data were plotted against Au concentration, and the resulting calibration curve was used for determining the concentration of the analogs in the aqueous phase.
To construct the standard calibration curve of the Au concentration in the n-octanol phase, compound 27 was used. The Au concentration in compound 27 was first calibrated against the aqueous gold standard. For this, 0.440 mg of compound 27 was weighed on a Sartorius MC5 microbalance, and then added to 22 mL of n-octanol-saturated water. […] For this, solutions of varying concentrations (0.99, 2.47, 4.94, 5.93, 9.88 ppm) of compound 27 in water-saturated n-octanol were prepared. The absorbance was measured by FAAS, and the data were plotted against the Au concentration to provide a second calibration curve, which was used for determining the Au concentration of the analogs in the n-octanol phase.
Determination of Au concentrations: Method 1. 0.5 to 1 mg of compound was weighed into a 2-mL Eppendorf tube containing 2 mL of n-octanol-saturated water. After shaking for about 4 h, the solution was centrifuged at 6000 rpm for 3 min. 1 mL of the supernatant was transferred to a new tube containing 1 mL of water-saturated n-octanol, and the mixture was shaken for 1 h. After centrifugation at 6000 rpm for 5 min, the two layers were collected and the gold concentration in each layer was determined by FAAS by comparing the absorbance to the first and second calibration curves.
Determination of Au concentrations: Method 2. […] For Method 2, 0.6 to 1 mg of compound was weighed into a 2-mL Eppendorf tube containing 1 mL of n-octanol-saturated water and 1 mL of water-saturated n-octanol. After shaking for 3-4 h, the mixture was centrifuged, and all liquid was transferred to a 15-mL tube. The liquid was then diluted with 2 mL of n-octanol-saturated saturated water and 2 mL of water-saturated n-octanol, and the mixture was shaken for another hour. After centrifugation at 6000 rpm for 5 min, the two layers were collected and the gold concentration in each layer was determined by FAAS by comparing the absorbance to the first and second calibration curves.
Log P was calculated as follows: log P=log[compound]oct/[compound]water

Row | Substance | IC50 against A549 cells [1] [µg/mL] | MBC (in brackets) [2] | MIC [2] | MIC [3] | MBC (in brackets) [4] | MIC [4] | MBC (in brackets) [5] | MIC [5] | MBC (in brackets) [6] | MIC [6] | MBC (in brackets) [7] | MIC [7] | MIC [8] | Log P ([9]; n-octanol/water, gold by FAAS) | MBC (in brackets) [3] | MBC (in brackets) [8] | Log P [9] | MIC or MIC/MBC, fold lower than auranofin ([2]; K. pneumoniae) [fold] | MIC/MBC ([2]; K. pneumoniae) [µM]
1 | (Tri-n-butylphosphine) gold chloride [Compound 30] | 4.7 ± 0.0 | 147 (147) μM/mL | 147 (147) μM/mL | >589 μM/mL | (147) μM/mL | 74/147 | 4 μM/mL | 2 μM/mL | 74 (74) μM/mL | 74 (74) μM/mL | 5 (5) μM/mL | 5 (5) μM/mL | >589 μM/mL | >3.99 | – | – | – | – | –
2 | (Triethylphosphine) gold chloride [Compound 29] | 9.5 ± 0.1 | 46 (46) μM/mL | 46 (46) μM/mL | 23 (23) μM/mL | 23 μM/mL | 11/23 | 02 (0.2) μM/mL | – | 183 μM/mL | 92 μM/mL | (0.7) μM/mL | – | 23 (23) μM/mL | 1.74 | 23 (23) μM/mL | 23 (23) μM/mL | – | – | –
3 | (1-Thio-β-D-galatopyranosato)(trimethylphosphine) gold(I) [Compound 16] | 43.0 ± 3.7 | 34 (34) μM/mL | 34 (34) μM/mL | 4(4) μM/mL | 17 μM/mL | 17/9 | 0.3 (0.3) μM/mL | 0.3 (0.3) μM/mL | – | >547 μM/mL | (0.5) μM/mL | – | 9 (9) μM/mL | – | 4(4) μM/mL | 9 (9) μM/mL | −1.88 | – | –
4 | (4-Aminobenzenethiolato)(triethylphosphine) gold(I) [Compound 20] | 6.5 ± 1.1 | 36 (36) μM/mL | 36 (36) μM/mL | 36 (36) μM/mL | 18 (18) μM/mL | 18 (18) μM/mL | 2 (0.07) μM/mL | – | 146 (146) μM/mL | 146 (146) μM/mL | (0.1) μM/mL | 0.02 μM/mL | 9 (9) μM/mL | – | 36 (36) μM/mL | 9 (9) μM/mL | 1.36 | 10 | 36
5 | (Benzenethiolato)(triethylphosphine) gold(I) [Compound 18] | 4.3 ± 0.2 | – | >603 μM/mL | 75 μM/mL | (>603) μM/mL | 19/75 | (0.6) μM/mL | 0.02 μM/mL | 302 (302) μM/mL | 302 (302) μM/mL | 1 μM/mL | 0.6 μM/mL | 151 μM/mL | – | 603 μM/mL | (151) μM/mL | 2.20 | – | –

Source: US20210198284A1, “GOLD COMPOSITIONS AND METHODS OF USE THEREOF” (THE UNIVERSITY OF MASSACHUSETTS, priority 2018, published 2021)
